According to PMC3884839, “Pharmacokinetics and pharmacodynamics utilizing unbound target tissue exposure as part of a disposition-based rationale for lead optimization of benzoxaboroles in the treatment of Stage 2 Human African Trypanosomiasis” (Parasitology, 2013):

How the values were obtained:
[1] = Unbound brain exposure (AUC0-24) in uninfected mice after once daily oral SCYX-7158; type: in vivo, mouse; conditions: 12·5 mg kg^−1 once daily
Description: (§1) The CNS disposition and pharmacokinetics of the benzoxaboroles were evaluated in infected and uninfected mice following oral administration. In vivo phases of single-dose rodent PK studies were performed at Vivisource (Waltham, MA) following Institutional Animal Care and Use Committee (IACUC) review in an Association for Assessment and Accreditation of Laboratory Animal Care International (AAALAC)-approved facility. Studies in Trypanosoma brucei brucei (TREU 667 strain) infected mice, or uninfected satellite animals, were performed after IACUC review at Pace University (NewYork, NY).
(§2) Male CD-1 or female Swiss Webster mice (approximately 25 g) were administered test compounds by oral gavage either once (QD) or twice per day (Q12 h) with doses ranging between 6 and 100 mg kg^−1 as described below. All compounds were formulated as an in situ sodium salt in 2% (v/v) ethanol, 5% (m/v) dextrose, to yield typically clear colourless solutions that were administered at 4 mL kg^−1. Blood samples for pharmacokinetic studies were collected into polypropylene tubes containing K2EDTA anticoagulant and stored on wet ice until centrifuged and processed to plasma. Plasma was stored at −80 °C. Blood samples from mice were collected via cardiac puncture under terminal anaesthesia. Rodents were euthanized in a CO2 chamber before collection of terminal blood or tissue samples. Brain tissues were blotted dry and stored at approximately −80 °C.
Pharmacokinetic studies were performed in CD-1 mice to establish AUC0–24 following single and 7×once daily oral doses of 6·25, 12·5, 25, 50 and 100 mg kg^−1 SCYX-7158 (Jacobs et al. [2011]). […] Values for unbound AUC0–24 in brain were calculated using the single and steady-state exposure data (non-parametric super-positioning indicated steady-state was mostly attained on day 2 so day 7 data were employed for days 2–7 rather than modelled data for days 2–6) and compared to the target unbound AUC from the in vitro reversibility studies (Fig. 9).

T. b. brucei = test: In vitro reversibility of trypanocidal effects (transient exposure); type: cell-based, Trypanosoma brucei brucei
Description: The time and concentration dependency for oxaborole-mediated killing of T. b. brucei, under constant (time-kill) and transient (reversibility) drug-pressure, was determined as described previously (Nare et al. 2010).
Reversibility was assessed as the ability T. b. brucei parasites to recover from transient exposure (0–24 h) to test benzoxaboroles (0·02–10 μg mL^−1). Trypanosomes were seeded in clear 96-well ‘V’-bottom plates at a density of 1×10^5 parasites per well; one plate was prepared for each time-point. After the designated incubation time, each plate was removed from the incubator and centrifuged at 4400 g for 5 min to sediment parasites. The supernatant containing the test compound was aspirated and three washing cycles were performed where 100 μl of warmed HMI-9 media was added to each well and then aspirated. […] Thus, each concentration and time-point was evaluated in triplicate. Each plate was incubated for a further 72 h, whereupon, trypanocidal activity was determined using resazurin (Sigma-Aldrich, St. Louis, MO) where 20 μl of a 25 mg/100 mL stock in PBS was added, incubated for an additional 4–6 h and fluorescence measured using the EnVision plate reader (excitation wavelength, 530 nm and emission wavelength, 590 nm).

[2] = Single oral dose pharmacokinetics and CNS penetration in male CD-1 mice; type: in vivo, mouse
Description: as §1, §2
Plasma (50 μL) was treated with 4 volumes of ice-cold methanol (containing 25 ng mL^−1 of either deuterium (d6)-labelled SCYX-7158 internal standard (SCYX-5232) for SCYX-7158 analyses or a related benzoxaborole for other compounds) to precipitate proteins. Treated samples were gently mixed on a 96-well plate shaker for approximately 10 min then centrifuged at approximately 3000 g and 15 °C for 15 min. Supernatants were transferred to fresh 96-well plates for analysis by means of LC-MSMS. Samples of tissue homogenate (50 μL), or buffer from protein binding studies, were treated similarly to plasma samples.
All biological samples were assayed by a verified LC-MSMS method employing two dimensional chromatographic separation to overcome ion suppression (Annesely, [2003]) caused by co-elution of endogenous components with benzoxaboroles. In summary, treated samples were loaded onto Phenomenex (Torrance, CA) Synergi Polar RP, 4 μ, 50×2 mm extraction columns and subsequently back-eluted onto a Phenomenex Luna C8(2) 3 μ, 50×2 mm analytical columns protected by a Phenomenex C8 guard cartridge. Mobile phases for extraction and analytical columns consisted of 5 mM ammonium formate and 0·1% (v/v) formic acid in water (A), and 5 mM ammonium formate and 0·1% (v/v) formic acid in methanol (B). […]

## CC1(C)OB(O)c2cc(NC(=O)c3ccc(F)cc3C(F)(F)F)ccc21 [SCYX-7158]
[1]
  time unbound concentration in brain tissue exceeded IC50u on each day: 10 h
  time unbound concentration in brain tissue exceeded MICu on each day: 4 h
  unbound AUC0–24 as percentage of the target MICu AUC: approximately 50%
T. b. brucei; Cu 0·123 μg mL^−1 (Ct 0·313 μg mL^−1), 24 h incubation
  reduction in survival relative to untreated control parasites: 24%
T. b. brucei; Cu 1·11 μg mL^−1 (Ct 1·25 μg mL)
  exposure time tolerated without impact on survival: 8 h
[2]
  time CNS (brain) total concentration above MIC: ~20 h
